Results: the NIST ThermoML archive (doi:10.1016/j.jct.2011.05.003)
Numbers after ± are expanded uncertainties.

Details: 101.33 kPa, Liquid; for speed of sound: Sing-around technique in a fixed-path interferometer; for mass density: Vibrating tube method

Row | speed of sound (293.15 K) [m/s] | mass density (293.15 K) [kg/m3] | speed of sound (298.15 K) [m/s] | mass density (298.15 K) [kg/m3] | speed of sound (303.15 K) [m/s] | mass density (303.15 K) [kg/m3] | SMILES
1 | 1281.9 ± 1.2 | 815.433 ± 0.24 | 1262.5 ± 1.2 | 811.139 ± 0.24 | 1244.1 ± 1.2 | 806.827 ± 0.24 | CCCCCC(C)=O [2-heptanone]
2 | 1261.2 ± 0.83 | 759.529 ± 0.16 | 1241.4 ± 0.82 | 755.577 ± 0.16 | 1222.2 ± 0.82 | 751.407 ± 0.16 | CCCCNCCCC [dibutylamine]
3 | 1209.4 ± 1.2 | 738.259 ± 0.25 | 1188 ± 1.2 | 733.81 ± 0.25 | 1167.6 ± 1.2 | – | CCCNCCC [dipropylamine]
4 | 1132.5 ± 0.8 | 727.333 ± 0.17 | 1110.9 ± 0.8 | 722.729 ± 0.17 | 1090.7 ± 0.78 | 718.092 ± 0.17 | CCN(CC)CC [triethylamine]
